From US9834542B2, “LXR modulators” (BRISTOL-MYERS SQUIBB COMPANY, priority 2013, dated 2017)

Target: T1, LXRβ (Homo sapiens, UniProt P55055)
T1 construct: Co-transfection expression plasmids, comprising full-length LXRα (pCMX-h LXRα[…] or LXRβ (pCMX-hLXRβ)); expressed in transfected cells; host or cells: CV-1 African Green Monkey Kidney Cells
T1 sequence (P55055 1-460): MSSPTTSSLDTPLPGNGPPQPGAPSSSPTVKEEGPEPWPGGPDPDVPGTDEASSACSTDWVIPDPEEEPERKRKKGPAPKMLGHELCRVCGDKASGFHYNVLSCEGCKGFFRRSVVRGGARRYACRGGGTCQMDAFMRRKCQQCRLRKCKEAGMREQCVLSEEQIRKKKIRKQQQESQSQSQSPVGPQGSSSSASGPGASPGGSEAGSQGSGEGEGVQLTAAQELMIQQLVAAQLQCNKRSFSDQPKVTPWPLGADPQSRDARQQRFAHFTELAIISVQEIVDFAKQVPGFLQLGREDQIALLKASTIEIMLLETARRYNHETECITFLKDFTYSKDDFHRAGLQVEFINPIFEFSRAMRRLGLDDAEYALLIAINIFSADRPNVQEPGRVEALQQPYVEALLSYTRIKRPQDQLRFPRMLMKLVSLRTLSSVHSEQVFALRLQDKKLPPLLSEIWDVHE
T1 sequence (P19793 1-462 partner): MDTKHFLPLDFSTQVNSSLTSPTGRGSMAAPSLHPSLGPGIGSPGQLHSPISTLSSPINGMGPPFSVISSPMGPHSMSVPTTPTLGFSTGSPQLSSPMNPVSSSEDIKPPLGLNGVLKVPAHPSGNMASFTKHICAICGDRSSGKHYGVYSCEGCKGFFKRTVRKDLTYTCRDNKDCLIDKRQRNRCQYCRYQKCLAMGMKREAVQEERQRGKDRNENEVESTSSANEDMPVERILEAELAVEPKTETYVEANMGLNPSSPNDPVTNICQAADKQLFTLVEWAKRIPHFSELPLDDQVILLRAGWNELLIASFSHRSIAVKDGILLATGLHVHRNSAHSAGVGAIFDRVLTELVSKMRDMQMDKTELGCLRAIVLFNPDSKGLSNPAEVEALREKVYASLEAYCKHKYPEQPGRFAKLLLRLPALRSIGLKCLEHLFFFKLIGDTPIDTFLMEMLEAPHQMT
Experiment: Co-transfection assay (LXRE luciferase reporter), LXRβ
Type: cell-based
Conditions: for EC50: CV-1 cells transfected with pCMX-hLXRβ and LXREx1-Tk-Luciferase, 20 hours incubation; for Emax: LXRβ co-transfection, relative to high control 1-(2,4-difluorobenzyl)-2-oxo-6-(4-phenoxyphenyl)-4-(trifluoromethyl)-1,2-dihydropyridine-3-carbonitrile, read-out: % Efficacy
Summary of the method: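 CV-1 / pCMX-hLXRβ + LXREx1-Tk-Luc + β-gal; cpd 20 h, 37 °C, ≤0.5% DMSO; Steady-Glo luminescence. 11-pt ½-log curves, duplicate wells, sigmoidal fit → EC50; % efficacy vs high-control agonist, DMSO low control; mean of ≥2 expts.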

Compound	EC50 [nM]	Emax [%]
Cc1nc(C(C)(F)F)cn1-c1ccc(-c2cccc(S(=O)(=O)N(C)C)c2)cc1-n1nncc1-c1ccc(OC(F)(F)F)cc1 [Example 181, 4′-[4-(1,1-difluoroethyl)-2-methyl-1H-imidazol-1-yl]-N,N-dimethyl-3′-(5-{4-[(trifluoromethyl)oxy]phenyl}-1H-1,2,3-triazol-1-yl)biphenyl-3-sulfonamide]	502	70
CCCCOc1ccc(-c2cnnn2-c2cc(-c3cccc(S(C)(=O)=O)c3)ccc2-n2cc(C(F)(F)F)nc2C)cc1 [Example 30, 5-[4-(butyloxy)phenyl]-1-{3′-(methylsulfonyl)-4-[2-methyl-4-(trifluoromethyl)-1H-imidazol-1-yl]biphenyl-3-yl}-1H-1,2,3-triazole]	605	85
Cc1cc(-c2cnnn2-c2cc(-c3cccc(S(C)(=O)=O)c3)ccc2-n2cc(C(F)(F)F)nc2C)ccc1F [Example 28, 5-(4-fluoro-3-methylphenyl)-1-{3′-(methylsulfonyl)-4-[2-methyl-4-(trifluoromethyl)-1H-imidazol-1-yl]biphenyl-3-yl}-1H-1,2,3-triazole]	589	117
Cc1nc(C(F)(F)F)cn1-c1ccc(-c2cccc(S(C)(=O)=O)c2)cc1-n1nncc1-c1ccc(Cl)cc1Cl [Example 76, 5-(2,4-dichlorophenyl)-1-{3′-(methylsulfonyl)-4-[2-methyl-4-(trifluoromethyl)-1H-imidazol-1-yl]biphenyl-3-yl}-1H-1,2,3-triazole]	500	69
COCc1c(F)cc(-c2ccc(-n3cc(C(C)(F)F)nc3C)c(-n3nncc3-c3ccc(OC(F)(F)F)cc3)c2)cc1S(C)(=O)=O [Example 179, 1-{4-[4-(1,1-difluoroethyl)-2-methyl-1H-imidazol-1-yl]-3′-fluoro-4′-[(methyloxy)methyl]-5′-(methylsulfonyl)biphenyl-3-yl}-5-{4-[(trifluoromethyl)oxy]phenyl}-1H-1,2,3-triazole]	620	105
CCS(=O)(=O)c1cccc(-c2ccc(-n3cc(C(F)F)nc3C)c(-c3cnnn3Cc3ccc(Cl)cc3)c2)c1 [Example 247, 1-(4-chlorobenzyl)-5-(4-(4-(difluoromethyl)-2-methyl-1H-imidazol-1-yl)-3′-(ethylsulfonyl)-[1,1′-biphenyl]-3-yl)-1H-1,2,3-triazole]	315	99
Cc1nc(C(F)(F)F)cn1-c1ccc(-c2cc(F)c(CO)c(S(C)(=O)=O)c2)cc1-n1nncc1C1(c2ccc(Cl)cc2)CC1 [Example 106, (3′-{5-[1-(4-chlorophenyl)cyclopropyl]-1H-1,2,3-triazol-1-yl}-3-fluoro-5-(methylsulfonyl)-4′-[2-methyl-4-(trifluoromethyl)-1H-imidazol-1-yl]biphenyl-4-yl)methanol]	281	48
Cc1nc(C(F)(F)F)cn1-c1ccc(-c2cccc(S(C)(=O)=O)c2)cc1-n1nncc1C(C)(C)c1ccc(Cl)cc1 [Example 222, 5-(2-(4-chlorophenyl)propan-2-yl)-1-(4-(2-methyl-4-(trifluoromethyl)-1H-imidazol-1-yl)-3′-(methylsulfonyl)-[1,1′-biphenyl]-3-yl)-1H-1,2,3-triazole]	1850	43
Cc1nc(C(F)(F)F)cn1-c1ccc(-c2cc(Cl)c(CO)c(S(C)(=O)=O)c2)cc1-n1nncc1-c1ccc(Cl)cc1 [Example 70, {3-chloro-3′-[5-(4-chlorophenyl)-1H-1,2,3-triazol-1-yl]-5-(methylsulfony)-4′-[2-methyl-4-(trifluoromethyl)-1H-imidazol-1-yl]biphenyl-4-yl}methanol]	361	40
Cc1nc(C(F)(F)F)cn1-c1ccc(-c2cccc(S(C)(=O)=O)c2)cc1-c1ccnn1-c1ccc(Cl)nc1 [Example 296, 2-chloro-5-(5-(4-(2-methyl-4-(trifluoromethyl)-1H-imidazol-1-yl)-3′-(methylsulfonyl)biphenyl-3-yl)-1H-pyrazol-1-yl)pyridine]	572	75

The next molecules have a lower EC50 than those just listed; values first:

EC50 [nM]	Emax [%]	Compound
265	87	Cc1nc(C(F)(F)F)cn1-c1ccc(-c2cccc(S(C)(=O)=O)c2)cc1-n1nncc1-c1ccc(OC(F)(F)F)cc1F [Example 61, 5-{2-fluoro-4-[(trifluoromethyl)oxy]phenyl}-1-{3′-(methylsulfonyl)-4-[2-methyl-4-(trifluoromethyl)-1H-imidazol-1-yl]biphenyl-3-yl}-1H-1,2,3-triazole]
225	88	Cc1nc(-c2cc(-c3cccc(S(=O)(=O)C(F)F)c3)ccc2-n2cc(C(F)(F)F)nc2C)c(-c2ccc(OC(F)F)c(F)c2)o1 [Example 430, 5-(4-(difluoromethoxy)-3-fluorophenyl)-4-(3′-(difluoromethylsulfonyl)-4-(2-methyl-4-(trifluoromethyl)-1H-imidazol-1-yl)biphenyl-3-yl)-2-methyloxazole]
206	81	COCS(=O)(=O)c1cccc(-c2ccc(-n3cc(C(F)(F)F)nc3C)c(-c3nc(C)oc3-c3ccc(OC(F)(F)F)cc3)c2)c1 [Example 539, 4-(3′-((methoxymethyl)sulfonyl)-4-(2-methyl-4-(trifluoromethyl)-1H-imidazol-1-yl)-[1,1′-biphenyl]-3-yl)-2-methyl-5-(4-(trifluoromethoxy)phenyl)oxazole]
181	68	Cc1nc(-c2cc(-c3cccc(S(C)(=O)=O)c3)ccc2-n2cc(C(F)(F)F)nc2C)c(-c2ccc(OC(CF)CF)c(F)c2)o1 [Example 406, 5-(4-(1,3-difluoropropan-2-yloxy)-3-fluorophenyl)-2-methyl-4-(4-(2-methyl-4-(trifluoromethyl)-1H-imidazol-1-yl)-3′-(methylsulfonyl)biphenyl-3-yl)oxazole]
143	91	Cc1nc(C(F)(F)F)cn1-c1c(F)cc(-c2cccc(S(C)(=O)=O)c2)cc1-n1nncc1-c1ccc(Cl)cc1Cl [Example 8, 5-(2,4-dichlorophenyl)-1-{5-fluoro-3′-(methylsulfonyl)-4-[2-methyl-4-(trifluoromethyl)-1H-imidazol-1-yl]biphenyl-3-yl}-1H-1,2,3-triazole]
116	87	Cc1nc(C(F)(F)F)cn1-c1ccc(-c2cccc(S(=O)(=O)N(C)C)c2)cc1-c1ocnc1-c1ccc(OC(F)(F)F)cc1 [Example 358, N,N-dimethyl-4′-[2-methyl-4-(trifluoromethyl)-1H-imidazol-1-yl]-3′-(4-{4-[(trifluoromethyl)oxy]phenyl}-1,3-oxazol-5-yl)biphenyl-3-sulfonamide]
102	94	Cc1nc(C(F)(F)F)cn1-c1ccc(-c2cc(F)c(CO)c(S(C)(=O)=O)c2)cc1-n1nncc1-c1ccc(OC(F)(F)F)c(Cl)c1 [Example 78, {3′-(5-{3-chloro-4-[(trifluoromethyl)oxy]phenyl}-1H-1,2,3-triazol-1-yl)-3-fluoro-5-(methylsulfonyl)-4′-[2-methyl-4-(trifluoromethyl)-1H-imidazol-1-yl]biphenyl-4-yl}methanol]
32	89	CCc1nc(-c2cc(-c3cccc(S(C)(=O)=O)c3)ccc2-n2cc(C(F)(F)F)nc2C)c(-c2ccc3c(c2)OC(F)(F)O3)o1 [Example 478, 5-(2,2-difluorobenzo[d][1,3]dioxol-5-yl)-2-ethyl-4-(4-(2-methyl-4-(trifluoromethyl)-1H-imidazol-1-yl)-3′-(methylsulfonyl)biphenyl-3-yl)oxazole]
